Results reported in patent publication US9925130B2, “Composition with zinc amino acid/trimethylglycine halide precursors” (Colgate-Palmolive Company, priority 2012, dated 2018).

Columns and labels:
S. aureus = assay: Zone of inhibition test on TSA plates; assay type: cell-based
Protocol: (§1) A zone of inhibition test is conducted on several materials: zinc oxide and amino acid hydrohalide alone and a mixture formed from zinc oxide and amino acid hydrohalide. The method involves making a lawn of freshly prepared bacterial culture on TSA (trypticase soy agar) plates. Sterile filter paper discs are seeded with 20 μl of test sample (supernatant or mixture). Sample-coated filter paper discs are air dried and applied onto the bacterial lawn on TSA plates. Plates are incubated for 20 hours at 37° C.

C. minutissimum = assay: Zone of inhibition test on TSA plates; assay type: cell-based; details: Table 3, sample type not given
Protocol: as §1
Similar antibacterial efficacy is seen when tetrabasic zinc chloride is used in place of zinc oxide as the source of zinc ions.

[1] = molecular target: Bovine Serum Albumin (BSA) (Bos taurus, UniProt P02769); assay: Flocculation of ZLC in the presence of protein (BSA): turbidity and pH; assay type: physicochemical; details: for observation / pH / Turbidity (NTU): ZLC about 15 mg/ml, 5 hours 37° C.
Sequence of Bovine Serum Albumin (BSA) (P02769 25-607): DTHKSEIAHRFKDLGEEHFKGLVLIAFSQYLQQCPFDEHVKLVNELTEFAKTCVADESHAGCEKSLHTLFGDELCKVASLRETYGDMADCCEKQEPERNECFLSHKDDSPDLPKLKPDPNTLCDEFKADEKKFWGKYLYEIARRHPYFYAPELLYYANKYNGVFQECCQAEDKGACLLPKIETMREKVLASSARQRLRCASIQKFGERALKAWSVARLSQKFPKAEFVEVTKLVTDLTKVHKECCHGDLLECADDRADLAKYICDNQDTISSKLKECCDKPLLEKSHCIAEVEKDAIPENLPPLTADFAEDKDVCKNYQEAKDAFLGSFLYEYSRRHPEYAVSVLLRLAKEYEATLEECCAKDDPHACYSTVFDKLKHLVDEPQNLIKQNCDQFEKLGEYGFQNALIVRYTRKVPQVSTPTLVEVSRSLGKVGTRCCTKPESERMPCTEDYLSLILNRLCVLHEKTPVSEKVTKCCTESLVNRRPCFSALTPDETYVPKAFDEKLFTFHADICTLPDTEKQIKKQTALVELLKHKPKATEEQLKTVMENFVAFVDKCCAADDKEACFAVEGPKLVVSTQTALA
Protocol: Turbidity and pH of solutions are measured 5 hours after the mixtures were placed in a 37° C. oven, and the results are shown in Table 6.

[2] = Hydrolysis reaction: pH and turbidity of diluted ZLC solutions before and after aging; assay type: physicochemical; details: for pH after aging / turbidity after aging (NTU): 37° C. over 5 hours
Protocol: A 185 mg/ml solution of ZLC is prepared and diluted several-fold and aged in a 37° C. oven over 5 hours for turbidity studies. […] Turbidity of the solutions is measured using a nephelometer, results being given in nephelometric turbidity units (NTU).
The precipitates formed in the 8×, 16× and 32× diluted solutions are collected by centrifugation and identified as crystalline ZnO by PXRD. From the supernatant, a single crystal is grown and shown by X-ray diffraction to be Lysine Monohydrochloride Dihydrate (Lysine.HCl.2H2O).

[3] = Solubilization of zinc: free Zn2+ in supernatant by atomic absorption; assay type: physicochemical; details: dispersed in water, equilibrated overnight
Description: Ingredients are dispersed in water, equilibrated overnight, and the supernatant analyzed for free Zn^2+ by atomic absorption.

S. epider. = assay: Zone of inhibition test on TSA plates; assay type: cell-based; details: 20 h 37° C.
Protocol: as §1

C. xerosis = assay: Zone of inhibition test on TSA plates; assay type: cell-based; details: 20 h 37° C.
Protocol: as §1

[4] = sample 1: DI water, 0% BSA, pH 6.4
[5] = sample 3: 1% BSA, pH adjusted to 5.1

Question: Which “Zone of Inhibition” value (S. aureus; Table 3, Mixture) does the source give for [Cl-].[Cl-].[OH-].[OH-].[OH-].[OH-].[OH-].[OH-].[OH-].[OH-].[Zn+2].[Zn+2].[Zn+2].[Zn+2].[Zn+2] [TBZC (4%), Tetrabasic zinc chloride] here?
Answer: 6 mm

Question: And the “Zone of Inhibition” value (S. aureus; Table 3, Supernat)?
Answer: 6 mm

Question: What does the source list for NCCCC[C@H](N)C(=O)O [Lysine 4%, lysine]?
Answer: Zone of Inhibition (C. minutissimum): 0 mm; Zone of Inhibition (S. aureus; Table 3, sample type not given): 0 mm

Question: What does the source list for NCCCCC(N)C(=O)O.NCCCCC(N)C(=O)O.O.O.[Cl-].[Cl-].[Zn+2] (centres unmarked) [ZLC, [Zn(Lysine)2Cl]^+Cl^−.2H2O]?
Answer: flocculation of proteins ([1]; proteins such as BSA): ability to flocculate proteins; observation [1, 4]: slightly cloudy; pH [1, 4]: 8; Turbidity (NTU) ([1]; sample 2: 1% BSA, pH 7.2): >1000 NTU; observation ([1]; sample 2: 1% BSA, pH 7.2): precipitate; pH ([1]; sample 2: 1% BSA, pH 7.2): 8.2; Turbidity (NTU) [1, 5]: >1000 NTU; observation [1, 5]: precipitate; pH [1, 5]: 8; initial pH ([2]; 5.78 mg/ml): 8; pH after aging ([2]; 5.78 mg/ml): 8; turbidity after aging (NTU) ([2]; 5.78 mg/ml): >1000 NTU; initial pH ([2]; 11.56 mg/ml): 7.8; pH after aging ([2]; 11.56 mg/ml): 7.8; turbidity after aging (NTU) ([2]; 11.56 mg/ml): >1000 NTU; initial pH ([2]; 23.125 mg/ml): 7.7; initial turbidity (NTU) ([2]; 23.125 mg/ml): 0.7 NTU; pH after aging ([2]; 23.125 mg/ml): 7.7; initial pH ([2]; 46.25 mg/ml): 7.4; initial turbidity (NTU) ([2]; 46.25 mg/ml): 1.5 NTU; pH after aging ([2]; 46.25 mg/ml): 7.4; turbidity after aging (NTU) ([2]; 46.25 mg/ml): 2.8 NTU; initial pH ([2]; 92.5 mg/ml): 7; initial turbidity (NTU) ([2]; 92.5 mg/ml): 2.8 NTU; pH after aging ([2]; 92.5 mg/ml): 7; turbidity after aging (NTU) ([2]; 92.5 mg/ml): 2.6 NTU; initial pH ([2]; 185 mg/ml): 6.8; initial turbidity (NTU) ([2]; 185 mg/ml): 4.7 NTU; pH after aging ([2]; 185 mg/ml): 6.8; turbidity after aging (NTU) ([2]; 185 mg/ml): 4.1 NTU; observation as the 185 mg/ml solution is diluted ([2]; diluted several-fold, 37° C.): white precipitate forms; stability of the complex upon dilution ([2]; precipitates of 8×, 16×, 32× dilutions identified as crystalline ZnO by PXRD, Lysine.HCl.2H2O from supernatant): disassociates upon dilution, with consequent precipitation of zinc oxide

Question: Which results are given for [O]=[Zn] [ZnO(4%), zinc oxide]?
Answer: Free Zn [3]: 11 ppm; Zone of Inhibition (S. aureus; Dry Sample, Mixture, 20 h 37° C.): 7 mm; Zone of Inhibition (S. aureus; Dry Sample, Supernatant, 20 h 37° C.): 0 mm; Zone of Inhibition (S. aureus; Wet Sample, Mixture, 20 h 37° C.): 7 mm; Zone of Inhibition (S. aureus; Wet Sample, Supernatant, 20 h 37° C.): 0 mm; Zone of Inhibition (S. epider.; Dry Sample, Mixture): 10 mm; Zone of Inhibition (S. epider.; Dry Sample, Supernatant): 0 mm; Zone of Inhibition (S. epider.; Wet Sample, Mixture): 12 mm; Zone of Inhibition (S. epider.; Wet Sample, Supernatant): 0 mm; Zone of Inhibition (C. xerosis; Dry Sample, Mixture): 0 mm; Zone of Inhibition (C. xerosis; Dry Sample, Supernatant): 0 mm; Zone of Inhibition (C. xerosis; Wet Sample, Mixture): 0 mm; Zone of Inhibition (C. xerosis; Wet Sample, Supernatant): 0 mm

Question: For Cl.NCCCC[C@H](N)C(=O)O [Lysine-HCl 23.2%, lysine hydrochloride], which “Zone of Inhibition” value (C. minutissimum) is on record?
Answer: 0 mm

Question: And the “Zone of Inhibition” value (S. aureus; Dry Sample, As is, 20 h 37° C.)?
Answer: 0 mm

Question: What about the “Zone of Inhibition” value (S. aureus; Table 3, sample type not given) of the same molecule?
Answer: 0 mm

Question: And the “Zone of Inhibition” value (S. aureus; Wet Sample, As is, 20 h 37° C.)?
Answer: 0 mm

Question: And the “Zone of Inhibition” value (S. epider.; Dry Sample, As is)?
Answer: 0 mm

Question: What about the “Zone of Inhibition” value (S. epider.; Wet Sample, As is) of the same molecule?
Answer: 0 mm

Question: What about the “Zone of Inhibition” value (C. xerosis; Dry Sample, As is) of the same molecule?
Answer: 0 mm

Question: And the “Zone of Inhibition” value (C. xerosis; Wet Sample, As is)?
Answer: 0 mm

Question: Which results are given for N=C(N)NCCC[C@H](N)C(=O)O [Arginine 4%, arginine]?
Answer: Zone of Inhibition (C. minutissimum): 0 mm; Zone of Inhibition (S. aureus; Table 3, sample type not given): 0 mm
